In patent US9540388B2, “P2X7 modulators” (Janssen Pharmaceutica NV, priority 2013, dated 2017):

Experiments:
P2X7 [1] = target: T1, P2X7 (Homo sapiens (Human), UniProt Q99572); assay: Ca2+ flux (FLIPR) in 1321N1 cells expressing recombinant human P2X7; assay type: cell-based; conditions: Table 2, additional runs; 250 μM BzATP
Protocol: (§1) P2X7 Antagonism in Recombinant Human P2X7 Cells or Recombinant Rat P2X7 Cells: (a) Ca^2+ Flux and (b) Radioligand Binding
(§2) 1321N1 cells expressing the recombinant human or rat P2X7 channel was cultured in HyQ DME/(HyClone/Dulbecco's Modified Eagle Medium) high glucose supplemented with 10% Fetal Bovine Serum (FBS) and appropriate selection marker. Cells were seeded at a density of 25000 cells/well (96-well clear bottom black walled plates) in 100 μl volume/well. On the day of the experiment, cell plates were washed with assay buffer, containing (in mM): 130 NaCl, 2 KCl, 1 CaCl2, 1 MgCl2, 10 HEPES, 5 glucose; pH 7.40 and 300 mOs. After the wash, cells were loaded with the Calcium-4 dye (Molecular Device) and incubated in the dark for 60 minutes. Test compounds were prepared at 250× the test concentration in neat DMSO. Intermediate 96-well compound plates were prepared by transferring 1.2 μL of the compound into 300 μL of assay buffer. A further 3× dilution occurred when transferring 50 μL/well of the compound plate to 100 μL/well in the cell plate. Cells were incubated with test compounds and dye for 30 minutes. […] The fluorescence change was measured 180 seconds after adding the agonist.

rat P2X7 [2] = target: T2, rat P2X7 (Rattus norvegicus (Rat), UniProt Q64663); assay: Ca2+ flux (FLIPR) in 1321N1 cells expressing recombinant rat P2X7; assay type: cell-based; conditions: Table 2, additional runs; 250 μM BzATP
T2 sequence (Q64663 whole entry): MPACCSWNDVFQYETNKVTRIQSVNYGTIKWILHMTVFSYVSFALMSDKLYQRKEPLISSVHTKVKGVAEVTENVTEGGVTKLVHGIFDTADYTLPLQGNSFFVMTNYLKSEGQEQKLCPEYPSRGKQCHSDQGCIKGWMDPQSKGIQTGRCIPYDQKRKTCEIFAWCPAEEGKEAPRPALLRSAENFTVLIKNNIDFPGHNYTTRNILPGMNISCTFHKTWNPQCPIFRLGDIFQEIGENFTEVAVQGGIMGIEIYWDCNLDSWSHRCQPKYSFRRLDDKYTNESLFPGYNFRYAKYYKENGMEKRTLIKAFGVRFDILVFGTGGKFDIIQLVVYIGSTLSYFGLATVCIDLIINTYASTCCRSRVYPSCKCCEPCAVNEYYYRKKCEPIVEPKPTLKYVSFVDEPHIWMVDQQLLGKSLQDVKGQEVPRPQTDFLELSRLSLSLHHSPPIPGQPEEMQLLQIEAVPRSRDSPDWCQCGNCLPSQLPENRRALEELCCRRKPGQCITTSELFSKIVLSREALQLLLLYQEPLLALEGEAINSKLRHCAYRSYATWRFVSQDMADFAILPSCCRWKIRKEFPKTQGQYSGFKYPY
Protocol: as §1, §2

rat P2X7 [3] = target: T2, rat P2X7; assay: Radioligand binding, recombinant rat P2X7-1321N1 cell membranes, tritiated A-804598; conditions: Table 2, additional runs
Protocol: as §1
(§3) human or rat P2X7-1321N1 cells were collected and frozen @−80° C. On the day of the experiment, cell membrane preparations were made according to standard published methods. […] The compound can be prepared as described in the literature. […] The assay was terminated by filtration (GF/B filters pre-soaked with 0.3% PEI) and washed with washing buffer (Tris-HCl 50 mM). The IC50 generated in the binding assay was corrected for tracer concentration and affinity of the tracer to derive at the affinity (Ki) of the test compounds. […] Data are analyzed and graphed on Graphpad Prism 5.

P2X7 [4] = target: T1, P2X7; assay: Radioligand binding, recombinant human P2X7-1321N1 cell membranes, tritiated A-804598; conditions: Table 2, additional runs
Protocol: as §1, §3

T1 sequence (Q99572 whole entry): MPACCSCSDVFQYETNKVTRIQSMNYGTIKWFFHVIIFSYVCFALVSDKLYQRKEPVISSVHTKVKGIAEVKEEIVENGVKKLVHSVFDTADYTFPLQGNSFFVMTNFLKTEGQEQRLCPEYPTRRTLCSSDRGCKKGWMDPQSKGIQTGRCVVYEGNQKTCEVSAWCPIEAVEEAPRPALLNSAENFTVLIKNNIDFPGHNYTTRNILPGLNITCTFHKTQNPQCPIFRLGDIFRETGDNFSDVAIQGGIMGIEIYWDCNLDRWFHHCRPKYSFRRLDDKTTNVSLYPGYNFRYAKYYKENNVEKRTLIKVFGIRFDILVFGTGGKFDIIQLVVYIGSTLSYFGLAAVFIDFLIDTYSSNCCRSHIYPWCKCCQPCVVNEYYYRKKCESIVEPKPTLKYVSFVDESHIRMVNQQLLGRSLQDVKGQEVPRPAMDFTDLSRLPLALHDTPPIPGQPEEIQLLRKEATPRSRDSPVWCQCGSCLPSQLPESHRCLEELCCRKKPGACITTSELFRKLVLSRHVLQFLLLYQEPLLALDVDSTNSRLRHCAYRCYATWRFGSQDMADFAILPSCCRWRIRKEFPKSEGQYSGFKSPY

O=C(c1cccc(C(F)(F)F)c1Cl)N1[C@@H]2CCC[C@H]1c1nnc(-c3cc(C(F)(F)F)ccn3)n1C2 (stereo in doubt) [Example 196, (6R,10S)-11-{[2-Chloro-3-(trifluoromethyl)phenyl]carbonyl}-3-[4-(trifluoromethyl)pyridin-2-yl]-5,6,7,8,9,10-hexahydro-6,10-epimino[1,2,4]triazolo[4,3-a]azocine]
IC50 (P2X7 [1]): 1.6 nM
IC50 (rat P2X7 [2]): 1.7 nM
Ki (rat P2X7 [3]): 5.8 nM
Ki (P2X7 [4]): 21.9 nM

O=C(c1ccc(Cl)c(F)c1Cl)N1[C@@H]2CCC[C@H]1c1nnc(-c3ccccn3)n1C2 (stereo in doubt) [Example 202, (6R,10S)-11-[(2,4-Dichloro-3-fluorophenyl)carbonyl]-3-pyridin-2-yl-5,6,7,8,9,10-hexahydro-6,10-epimino[1,2,4]triazolo[4,3-a]azocine]
IC50 (P2X7 [1]): 17.6 nM
IC50 (rat P2X7 [2]): 462 nM
Ki (rat P2X7 [3]): 5.8 nM
Ki (P2X7 [4]): 3.9 nM

O=C(c1cccc(C(F)(F)F)c1Cl)N1[C@@H]2CCC[C@H]1c1nnc(-c3cccnn3)n1C2 (stereo in doubt) [Example 195, (6R,10S)-11-{[2-Chloro-3-(trifluoromethyl)phenyl]carbonyl}-3-pyridazin-3-yl-5,6,7,8,9,10-hexahydro-6,10-epimino[1,2,4]triazolo[4,3-a]azocine]
IC50 (P2X7 [1]): 40 nM
IC50 (rat P2X7 [2]): > 10000 nM
Ki (P2X7 [4]): 20.9 nM

O=C(c1ccnc(C(F)(F)F)c1Cl)N1[C@@H]2CCC[C@H]1c1nnc(-c3ccccn3)n1C2 (stereo in doubt) [Example 199, (6R,10S)-11-{[3-Chloro-2-(trifluoromethyl)pyridin-4-yl]carbonyl}-3-pyridin-2-yl-5,6,7,8,9,10-hexahydro-6,10-epimino[1,2,4]triazolo[4,3-a]azocine]
IC50 (P2X7 [1]): 29.5 nM
IC50 (rat P2X7 [2]): 12.7 nM
Ki (rat P2X7 [3]): 5 nM
Ki (P2X7 [4]): 25.1 nM

O=C(c1ccc(F)c(C(F)(F)F)c1Cl)N1[C@@H]2CCC[C@H]1c1nnc(-c3ccccn3)n1C2 (stereo in doubt) [Example 200, (6R,10S)-11-{[2-Chloro-4-fluoro-3-(trifluoromethyl)phenyl]carbonyl}-3-pyridin-2-yl-5,6,7,8,9,10-hexahydro-6,10-epimino[1,2,4]triazolo[4,3-a]azocine]
IC50 (rat P2X7 [2]): 10.2 nM
Ki (rat P2X7 [3]): 3.2 nM
Ki (P2X7 [4]): 10.7 nM

Cc1ccnc(-c2nnc3n2C[C@H]2CCC[C@@H]3N2C(=O)c2cccc(C(F)(F)F)c2Cl)c1 (stereo in doubt) [Example 194, (6R,10S)-11-{[2-Chloro-3-(trifluoromethyl)phenyl]carbonyl}-3-(4-methylpyridin-2-yl)-5,6,7,8,9,10-hexahydro-6,10-epimino[1,2,4]triazolo[4,3-a]azocine]
IC50 (P2X7 [1]): 17.3 nM
IC50 (rat P2X7 [2]): 7.4 nM
Ki (rat P2X7 [3]): 3.1 nM
Ki (P2X7 [4]): 14.1 nM

O=C(c1ccc(F)c(Cl)c1Cl)N1[C@@H]2CCC[C@H]1c1nnc(-c3ccccn3)n1C2 (stereo in doubt) [Example 203, (6R,10S)-11-[(2,3-Dichloro-4-fluorophenyl)carbonyl]-3-pyridin-2-yl-5,6,7,8,9,10-hexahydro-6,10-epimino[1,2,4]triazolo[4,3-a]azocine]
IC50 (P2X7 [1]): 25.3 nM
IC50 (rat P2X7 [2]): 20 nM
Ki (rat P2X7 [3]): 2.2 nM
Ki (P2X7 [4]): 5.3 nM

Cc1nc(-c2nnc3n2C[C@H]2CCC[C@@H]3N2C(=O)c2cccc(C(F)(F)F)c2Cl)ccc1F (stereo in doubt) [Example 193, (6R,10S)-11-{[2-Chloro-3-(trifluoromethyl)phenyl]carbonyl}-3-(5-fluoro-6-methylpyridin-2-yl)-5,6,7,8,9,10-hexahydro-6,10-epimino[1,2,4]triazolo[4,3-a]azocine]
IC50 (P2X7 [1]): 30.7 nM
IC50 (rat P2X7 [2]): 41.1 nM
Ki (rat P2X7 [3]): 4.9 nM
Ki (P2X7 [4]): 70.8 nM

O=C(c1ccnc(C(F)(F)F)c1F)N1[C@@H]2CCC[C@H]1c1nnc(-c3ccccn3)n1C2 (stereo in doubt) [Example 198, (6R,10S)-11-{[3-Fluoro-2-(trifluoromethyl)pyridin-4-yl]carbonyl}-3-pyridin-2-yl-5,6,7,8,9,10-hexahydro-6,10-epimino[1,2,4]triazolo[4,3-a]azocine]
IC50 (P2X7 [1]): 20.9 nM
IC50 (rat P2X7 [2]): 327 nM
Ki (rat P2X7 [3]): 6.2 nM
Ki (P2X7 [4]): 9.8 nM

Cc1c(C(=O)N2[C@@H]3CCC[C@H]2c2nnc(-c4ccccn4)n2C3)cccc1C(F)(F)F (stereo in doubt) [Example 201, (6R,10S)-11-{[2-Methyl-3-(trifluoromethyl)phenyl]carbonyl}-3-pyridin-2-yl-5,6,7,8,9,10-hexahydro-6,10-epimino[1,2,4]triazolo[4,3-a]azocine]
IC50 (P2X7 [1]): 14 nM
IC50 (rat P2X7 [2]): 726 nM
Ki (rat P2X7 [3]): 3.2 nM
Ki (P2X7 [4]): 11.5 nM

O=C(c1cccc(C(F)(F)F)c1Cl)N1[C@@H]2CCC[C@H]1c1nnc(-c3ccncn3)n1C2 (stereo in doubt) [Example 197, (6R,10S)-11-{[2-Chloro-3-(trifluoromethyl)phenyl]carbonyl}-3-pyrimidin-4-yl-5,6,7,8,9,10-hexahydro-6,10-epimino[1,2,4]triazolo[4,3-a]azocine]
IC50 (P2X7 [1]): 10.7 nM
IC50 (rat P2X7 [2]): 1490 nM
Ki (rat P2X7 [3]): 63.1 nM
Ki (P2X7 [4]): 19.1 nM
